Reference: patent publication US20260285850A1, “SUBSTITUTED OXAZOLIDINONES AND IMIDAZOLINONES AS HERBICIDES” (FMC CORPORATION, priority 2023, published 2026)

Experiments:
Type in all cases: in vivo
[1] = system: wheat (Triticum aestivum); test: Test A postemergence application, visual injury rating 0-100
In short: (§1)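 Plants in a loam and sand soil blend were treated with each test chemical, in a non-phytotoxic solvent system including surfactant, either sprayed on seeded soil before emergence or applied after emergence at the one- to two-leaf stage. Ten days later in the greenhouse, plants were compared with untreated controls and visually rated from 0 (no effect) to 100 (complete control).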

kochia (Bassia scoparia) [2] = test: as above
In short: as §1

[3] = system: oat, wild (wild oat, Avena fatua); test: as above
In short: as §1

[4] = system: horseweed (Erigeron canadensis); test: as above
In short: as §1

[5] = system: palmer (palmer amaranth, palmer pigweed, Amaranthus palmeri); test: as above
In short: as §1

[6] = system: ragweed (common ragweed, Ambrosia artemisiifolia); test: as above
In short: as §1

[7] = system: blackgrass (Alopecurus myosuroides); test: as above
In short: as §1

soybean (Glycine max) [8] = test: as above
In short: as §1

[9] = system: green foxtail (Setaria viridis); test: as above
In short: as §1

[10] = system: ryegrass, Italian (italian ryegrass, Lolium multiflorum); test: as above
In short: as §1

[11] = system: barnyardgrass (Echinochloa crus-galli); test: as above
In short: as §1

corn (Zea mays) [12] = test: as above
In short: as §1

[13] = system: wheat (Triticum aestivum); test: Test A preemergence soil spray, visual injury rating 0-100; settings: 10 days
In short: as §1

kochia (Bassia scoparia) [14] = test: as above; settings: 10 days
In short: as §1

[15] = system: oat, wild (wild oat, Avena fatua); test: as above; settings: 10 days
In short: as §1

[16] = system: palmer (palmer amaranth, palmer pigweed, Amaranthus palmeri); test: as above; settings: 10 days
In short: as §1

[17] = system: ragweed (common ragweed, Ambrosia artemisiifolia); test: as above; settings: 10 days
In short: as §1

[18] = system: blackgrass (Alopecurus myosuroides); test: as above; settings: 10 days
In short: as §1

soybean (Glycine max) [19] = test: as above; settings: 10 days
In short: as §1

[20] = system: green foxtail (Setaria viridis); test: as above; settings: 10 days
In short: as §1

[21] = system: ryegrass, Italian (italian ryegrass, Lolium multiflorum); test: as above; settings: 10 days
In short: as §1

[22] = system: barnyardgrass (Echinochloa crus-galli); test: as above; settings: 10 days
In short: as §1

corn (Zea mays) [23] = test: as above; settings: 10 days
In short: as §1

[24] = system: sedge, umbrella (small-flower umbrella sedge, Cyperus difformis); test: Test B flooded paddy test, visual plant response rating 0-100; settings: 250 g ai/ha, Flood, applied to paddy water, evaluated after 13 days
In short: (§2)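 Visual scores versus untreated controls were recorded 13 days after treatment of greenhouse-held plants. At the 2-leaf stage, pots were flooded 3 cm above the soil surface and compounds added straight to the water.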

[25] = system: ducksalad (Heteranthera limosa); test: as above; settings: 250 g ai/ha, Flood, applied to paddy water, evaluated after 13 days
In short: as §2

rice (Oryza sativa) = test: as above; settings: 250 g ai/ha, Flood, applied to paddy water, evaluated after 13 days
In short: as §2

[26] = system: barnyardgrass (Echinochloa crusgalli); test: as above; settings: 250 g ai/ha, Flood, applied to paddy water, evaluated after 13 days
In short: as §2

[27] = 62 g ai/ha, postemergence, 10 days, 0 = no effect, 100 = complete control
[28] = Postemergence, 16 g ai/ha, greenhouse 10 days, 0 no effect, 100 complete control
[29] = 62 g ai/ha, 0 = no effect, 100 = complete control

CC1(C(=O)NC2CC=C(C(=O)OCC3CC3)C2)CN(c2cc(F)cc(Cl)c2)C(=O)O1 (centres unmarked) [Compound 144]
Wheat plant response rating (0-100) [1, 27]: 90 | Wheat plant response rating (0 to 100 scale) [1, 28]: 60 | Kochia plant response rating (0-100) (kochia (Bassia scoparia) [2]; [27]): 80 | Kochia plant response rating (0 to 100 scale) (kochia (Bassia scoparia) [2]; [28]): 80 | Oat, Wild plant response rating (0-100) [3, 27]: 40 | Oat, Wild plant response rating (0 to 100 scale) [3, 28]: 20 | Horseweed plant response rating (0-100) [4, 27]: 80 | Horseweed plant response rating (0 to 100 scale) [4, 28]: 50 | Pigweed, Palmer plant response rating (0-100) [5, 27]: 90 | Pigweed, Palmer plant response rating (0 to 100 scale) [5, 28]: 70 | Ragweed plant response rating (0-100) [6, 27]: 50 | Ragweed plant response rating (0 to 100 scale) [6, 28]: 20 | Blackgrass plant response rating (0-100) [7, 27]: 100 | Blackgrass plant response rating (0 to 100 scale) [7, 28]: 70 | Soybean plant response rating (0-100) (soybean (Glycine max) [8]; [27]): 80 | Soybean plant response rating (0 to 100 scale) (soybean (Glycine max) [8]; [28]): 80 | Foxtail, Green plant response rating (0-100) [9, 27]: 90 | Foxtail, Green plant response rating (0 to 100 scale) [9, 28]: 90 | Ryegrass, Italian plant response rating (0-100) [10, 27]: 90 | Ryegrass, Italian plant response rating (0 to 100 scale) [10, 28]: 60 | Barnyardgrass plant response rating (0-100) [11, 27]: 100 | Barnyardgrass plant response rating (0 to 100 scale) [11, 28]: 90 | Corn plant response rating (0-100) (corn (Zea mays) [12]; [27]): 100 | Corn plant response rating (0 to 100 scale) (corn (Zea mays) [12]; [28]): 100 | Wheat plant response rating ([13]; 16 g ai/ha, 0 to 100 scale): 0 | Wheat plant response rating (0-100) [13, 29]: 70 | Kochia plant response rating (kochia (Bassia scoparia) [14]; 16 g ai/ha, 0 to 100 scale): 0 | Kochia plant response rating (0-100) (kochia (Bassia scoparia) [14]; [29]): 40 | Oat, Wild plant response rating ([15]; 16 g ai/ha, 0 to 100 scale): 0 | Oat, Wild plant response rating (0-100) [15, 29]: 20 | Pigweed, Palmer plant response rating ([16]; 16 g ai/ha, 0 to 100 scale): 50 | Pigweed, Palmer plant response rating (0-100) [16, 29]: 80 | Ragweed plant response rating ([17]; 16 g ai/ha, 0 to 100 scale): 0 | Ragweed plant response rating (0-100) [17, 29]: 0 | Blackgrass plant response rating ([18]; 16 g ai/ha, 0 to 100 scale): 0 | Blackgrass plant response rating (0-100) [18, 29]: 0 | Soybean plant response rating (soybean (Glycine max) [19]; 16 g ai/ha, 0 to 100 scale): 0 | Soybean plant response rating (0-100) (soybean (Glycine max) [19]; [29]): 10 | Foxtail, Green plant response rating ([20]; 16 g ai/ha, 0 to 100 scale): 0 | Foxtail, Green plant response rating (0-100) [20, 29]: 90 | Ryegrass, Italian plant response rating ([21]; 16 g ai/ha, 0 to 100 scale): 10 | Ryegrass, Italian plant response rating (0-100) [21, 29]: 60 | Barnyardgrass plant response rating ([22]; 16 g ai/ha, 0 to 100 scale): 0 | Barnyardgrass plant response rating (0-100) [22, 29]: 100 | Corn plant response rating (corn (Zea mays) [23]; 16 g ai/ha, 0 to 100 scale): 0 | Corn plant response rating (0-100) (corn (Zea mays) [23]; [29]): 50 | Plant response rating, Sedge, Umbrella (0 to 100 scale, 0 is no effect and 100 is complete control) [24]: 100 | Plant response rating, Ducksalad (0 to 100 scale, 0 is no effect and 100 is complete control) [25]: 80 | Plant response rating, Rice (0 to 100 scale, 0 is no effect and 100 is complete control) (rice (Oryza sativa)): 50 | Plant response rating, Barnyardgrass (0 to 100 scale, 0 is no effect and 100 is complete control) [26]: 95
